Test results taken from patent US9963462B2 (priority 2015, dated 2018).

How the values were obtained:
[1] = molecular target: SNAP-hSPR (sepiapterin reductase, SPR) (Homo sapiens, UniProt P35270); experiment: biochemical; format: binding; conditions: terbium labelled SNAP-hSPR / SSZ labelled SNAP-EGFP; read-out: hTR-FRET IC50
[2] = system: BH4 production in human peripheral blood mononuclear cells (PBMCs); experiment: hPBMC assay, inhibition of BH4 production by LC-MS (anti-CD3/anti-CD28 stimulated); format: cell-based; conditions: PBMC, read-out: hPBMC IC50

Chain of SNAP-hSPR (sepiapterin reductase, SPR) (P35270 whole entry): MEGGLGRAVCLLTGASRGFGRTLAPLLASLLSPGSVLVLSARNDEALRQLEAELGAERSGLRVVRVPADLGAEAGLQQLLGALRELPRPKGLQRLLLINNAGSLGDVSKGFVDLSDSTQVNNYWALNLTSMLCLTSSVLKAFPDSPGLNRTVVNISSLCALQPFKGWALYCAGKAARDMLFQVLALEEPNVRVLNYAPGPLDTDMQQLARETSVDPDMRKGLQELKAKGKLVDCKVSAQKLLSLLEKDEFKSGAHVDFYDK

Cc1c(C(=O)N2CCC(n3cccc3C#N)CC2)cnn1-c1nn2cccc2c(=O)[nH]1 [Q-1219]
IC50 [1]: 1 nM | IC50 [2]: 79 nM

Cc1c(C(=O)N2CCC(n3cnc(C(F)(F)F)c3)CC2)cnn1-c1nn2cccc2c(=O)[nH]1 [Q-1234]
IC50 [1]: 2 nM | IC50 [2]: 27 nM

Cc1c(C(=O)N2CCN(c3nc(-c4ccncc4)cs3)CC2)cnn1-c1nn2cccc2c(=O)[nH]1 [Q-1182]
IC50 [1]: 1 nM | IC50 [2]: 48 nM

Cc1c(C(=O)N2CC3CCCC(C2)N3CC(F)(F)F)cnn1-c1nc2c(c(=O)[nH]1)CCC2 [Q-1081]
IC50 [1]: 2 nM | IC50 [2]: 130 nM

CCC(C#N)C1(F)CCN(C(=O)c2cnn(-c3nc4c(c(=O)[nH]3)CCC4)c2C)CC1 (centres unmarked) [Q-1102]
IC50 [1]: 1 nM | IC50 [2]: 58 nM

Cc1c(C(=O)N2CCC(c3ccc(Cl)nc3)CC2)cnn1-c1nn2cccc2c(=O)[nH]1 [Q-1116]
IC50 [1]: 1 nM | IC50 [2]: 76 nM

O=C(c1cnn(-c2nn3cccc3c(=O)[nH]2)c1)N1CCN2CC(F)(F)C[C@H]2C1 [Q-1246]
IC50 [1]: 4 nM | IC50 [2]: 100 nM

Cc1c(C(=O)N2CCC(c3nc(-c4ccccc4)co3)CC2)cnn1-c1nn2cccc2c(=O)[nH]1 [Q-1080]
IC50 [1]: 2 nM | IC50 [2]: 25 nM

Cc1c(C(=O)N2CCN(c3nc(-c4cccnc4)cs3)CC2)cnn1-c1nn2cccc2c(=O)[nH]1 [Q-1164]
IC50 [1]: 1 nM | IC50 [2]: 37 nM

Cc1c(C(=O)NC2CC(F)(F)C2)cnn1-c1nn2cccc2c(=O)[nH]1 [Q-1177]
IC50 [1]: 9 nM | IC50 [2]: 1300 nM

Cc1c(C(=O)N2CCN(S(=O)(=O)c3cc(Cl)sc3Cl)CC2)cnn1-c1nn2cccc2c(=O)[nH]1 [Q-1858]
IC50 [1]: 1 nM | IC50 [2]: 260 nM

Cc1c(C(=O)N2CCN(c3nnc(-c4ccccc4Cl)o3)CC2)cnn1-c1nn2cccc2c(=O)[nH]1 [Q-1188]
IC50 [1]: 6 nM | IC50 [2]: 290 nM

Cc1c(C(=O)N2CCN(c3ncc(-c4ccc(C#N)cc4)s3)CC2)cnn1-c1nn2cccc2c(=O)[nH]1 [Q-1211]
IC50 [1]: 10 nM | IC50 [2]: 160 nM

Cc1c(C(=O)N2CCc3[nH]ncc3C2)cnn1-c1nn2cccc2c(=O)[nH]1 [Q-1932]
IC50 [1]: 3 nM | IC50 [2]: 2700 nM

Cc1c(C(=O)N2CC(c3ccc(F)cn3)C2)cnn1-c1nn2cccc2c(=O)[nH]1 [Q-1128]
IC50 [1]: 2 nM | IC50 [2]: 48 nM

Cc1c(C(=O)N2CCC(c3noc(C(F)(F)F)n3)CC2)cnn1-c1nc2c(c(=O)[nH]1)CCC2 [Q-1075]
IC50 [1]: 2 nM | IC50 [2]: 17 nM

Cc1c(C(=O)N2CC(c3cncc(F)c3)C2)cnn1-c1nn2cccc2c(=O)[nH]1 [Q-1129]
IC50 [1]: 2 nM | IC50 [2]: 50 nM

Cc1c(C(=O)N2CCC(n3cccc3Cl)CC2)cnn1-c1nn2cccc2c(=O)[nH]1 [Q-1233]
IC50 [1]: 1 nM | IC50 [2]: 23 nM

Cc1c(C(=O)N2CC(N3CC(C(F)(F)F)C3)C2)cnn1-c1nn2cccc2c(=O)[nH]1 [Q-1082]
IC50 [1]: 4 nM | IC50 [2]: 120 nM

Cc1c(C(=O)N2CCCN(C(C)C(F)(F)F)CC2)cnn1-c1nn2cccc2c(=O)[nH]1 (centres unmarked) [Q-1218]
IC50 [1]: 3 nM | IC50 [2]: 130 nM

Cc1c(C(=O)N2CCC(n3cccc3S(=O)(=O)C(F)(F)F)CC2)cnn1-c1nn2cccc2c(=O)[nH]1 [Q-1288]
IC50 [1]: 8 nM | IC50 [2]: 600 nM

Cc1c(C(=O)N2CCN(S(=O)(=O)c3cccc(C#N)c3)CC2)cnn1-c1nn2cccc2c(=O)[nH]1 [Q-1794]
IC50 [1]: 2 nM | IC50 [2]: 250 nM

Cc1c(C(=O)N2CCN(CC(F)(F)F)CC2)cnn1-c1nc2[nH]ccc2c(=O)[nH]1 [Q-1256]
IC50 [1]: 30 nM | IC50 [2]: 330 nM

Cc1c(C(=O)N2CC3CC(C2)N3C2CCC2)cnn1-c1nn2cccc2c(=O)[nH]1 [Q-1168]
IC50 [1]: 3 nM | IC50 [2]: 58 nM

Cc1c(C(=O)N2CCN(S(=O)(=O)c3cccc4ccccc34)CC2)cnn1-c1nn2cccc2c(=O)[nH]1 [Q-1841]
IC50 [1]: 1 nM | IC50 [2]: 87 nM

Cc1c(C(=O)N2CCC(n3cccc3C(F)(F)F)CC2)cnn1-c1nn2cccc2c(=O)[nH]1 [Q-1238]
IC50 [1]: 2 nM | IC50 [2]: 79 nM

Cc1c(C(=O)N2CCN(c3nnc(-c4cccc(Cl)c4)o3)CC2)cnn1-c1nn2cccc2c(=O)[nH]1 [Q-1154]
IC50 [1]: 5 nM | IC50 [2]: 350 nM

Cc1c(C(=O)N2CCN(CC(F)(F)F)C3(CCC3)C2)cnn1-c1nn2cccc2c(=O)[nH]1 [Q-1200]
IC50 [1]: 1 nM | IC50 [2]: 150 nM

Cc1nn(-c2nn3cccc3c(=O)[nH]2)cc1C(=O)N1CC(N2CCC(F)(F)C2)C1 [Q-1243]
IC50 [1]: 20 nM | IC50 [2]: 51 nM

Cc1c(C(=O)N2CCC3(CCC3=O)CC2)cnn1-c1nn2cccc2c(=O)[nH]1 [Q-1209]
IC50 [1]: 1 nM | IC50 [2]: 920 nM

Cc1c(C(=O)N2CCc3nc(-c4cccc(Cl)c4)sc3C2)cnn1-c1nn2cccc2c(=O)[nH]1 [Q-1166]
IC50 [1]: 5 nM | IC50 [2]: 20 nM

CCC(=O)N1CCN(C(=O)c2cnn(-c3nn4cccc4c(=O)[nH]3)c2C)CC1 [Q-1214]
IC50 [1]: 6 nM | IC50 [2]: 1000 nM

Cc1c(C(=O)N2CCN(c3nc(-c4ccccc4C#N)cs3)CC2)cnn1-c1nn2cccc2c(=O)[nH]1 [Q-1172]
IC50 [1]: 3 nM | IC50 [2]: 180 nM

Cc1c(C(=O)N2CCC(c3ccc(F)nc3)CC2)cnn1-c1nn2cccc2c(=O)[nH]1 [Q-1105]
IC50 [1]: 1 nM | IC50 [2]: 18 nM

Cc1c(C(=O)N2CCc3nc(-c4ccccc4Cl)sc3C2)cnn1-c1nn2cccc2c(=O)[nH]1 [Q-1147]
IC50 [1]: 7 nM | IC50 [2]: 520 nM

Cc1c(C(=O)N2CCN(c3nc(-c4cccc(F)c4)cs3)CC2)cnn1-c1nn2cccc2c(=O)[nH]1 [Q-1156]
IC50 [1]: 6 nM | IC50 [2]: 110 nM

Cc1c(C(=O)N2CCN(c3ncc(-c4ccccc4C#N)o3)CC2)cnn1-c1nn2cccc2c(=O)[nH]1 [Q-1203]
IC50 [1]: 6 nM | IC50 [2]: 180 nM

Cc1c(C(=O)N2CCN(C(=O)C3CC3)CC2)cnn1-c1nn2cccc2c(=O)[nH]1 [Q-1213]
IC50 [1]: 3 nM | IC50 [2]: 890 nM

Cc1c(C(=O)N2CCN(c3nc(-c4cccc(Cl)c4)cs3)CC2)cnn1-c1nn2cccc2c(=O)[nH]1 [Q-1155]
IC50 [1]: 10 nM | IC50 [2]: 270 nM

Cc1c(C(=O)N2CCC3(CC2)CC3C(=O)N2CCOCC2)cnn1-c1nc2c(c(=O)[nH]1)CCC2 (centres unmarked) [Q-1077]
IC50 [1]: 5 nM | IC50 [2]: 160 nM

Cc1c(C(=O)N2CCC(c3ccc(F)cn3)CC2)cnn1-c1nn2cccc2c(=O)[nH]1 [Q-1115]
IC50 [1]: 1 nM | IC50 [2]: 45 nM

Cc1c(C(=O)N2CCN(c3ncc(-c4ccnc(Cl)c4)s3)CC2)cnn1-c1nn2cccc2c(=O)[nH]1 [Q-1236]
IC50 [1]: 6 nM | IC50 [2]: 48 nM

Cc1c(C(=O)N2CCN(S(C)(=O)=O)CC2)cnn1-c1nn2cccc2c(=O)[nH]1 [Q-1539]
IC50 [1]: 4 nM | IC50 [2]: 780 nM

Cc1c(C(=O)N2CC3CC(C2)N3C(=O)OC(C)(C)C)cnn1-c1nn2cccc2c(=O)[nH]1 [Q-1170]
IC50 [1]: 1 nM | IC50 [2]: 160 nM

Cc1c(C(=O)N2CCN(S(=O)(=O)c3ccc(Cl)s3)CC2)cnn1-c1nn2cccc2c(=O)[nH]1 [Q-1842]
IC50 [1]: 1 nM | IC50 [2]: 150 nM

Cc1c(C(=O)N2CCN(c3ncc(-c4cccc(C#N)c4)o3)CC2)cnn1-c1nn2cccc2c(=O)[nH]1 [Q-1212]
IC50 [1]: 1 nM | IC50 [2]: 13 nM

Cc1c(C(=O)N2CCN(S(=O)(=O)c3ccc(Cl)nc3)CC2)cnn1-c1nn2cccc2c(=O)[nH]1 [Q-1862]
IC50 [1]: 2 nM | IC50 [2]: 250 nM

Cc1c(C(=O)N2CCN(c3nc(-c4cccc(C#N)c4)cs3)CC2)cnn1-c1nn2cccc2c(=O)[nH]1 [Q-1181]
IC50 [1]: 2 nM | IC50 [2]: 11 nM

O=C(c1cn(-c2nn3cccc3c(=O)[nH]2)nn1)N1CCN(C2CCC2(F)F)CC1 (centres unmarked) [Q-1247]
IC50 [1]: 2 nM | IC50 [2]: 150 nM

Cc1c(C(=O)N2CCN(C3CC3)CC2)nnn1-c1nn2cccc2c(=O)[nH]1 [Q-1201]
IC50 [1]: 1 nM | IC50 [2]: 69 nM

Cc1c(C(=O)N2CCN(c3nnc(-c4ccc(Cl)cc4)o3)CC2)cnn1-c1nn2cccc2c(=O)[nH]1 [Q-1140]
IC50 [1]: 8 nM | IC50 [2]: 230 nM

Cc1c(C(=O)N2CCC(c3nc(C#N)cs3)CC2)cnn1-c1nc2c(c(=O)[nH]1)CCC2 [Q-1104]
IC50 [1]: 3 nM | IC50 [2]: 110 nM

Cc1c(C(=O)N2CCC(C3(C#N)CCC3)CC2)cnn1-c1nc2c(c(=O)[nH]1)CCC2 [Q-1087]
IC50 [1]: 2 nM | IC50 [2]: 29 nM

Cc1c(C(=O)N2CCN(S(=O)(=O)c3ccccc3C#N)CC2)cnn1-c1nn2cccc2c(=O)[nH]1 [Q-1847]
IC50 [1]: 1 nM | IC50 [2]: 64 nM

Cc1c(C(=O)N2CCCC(C(F)(F)F)CC2)cnn1-c1nn2cccc2c(=O)[nH]1 (centres unmarked) [Q-1124]
IC50 [1]: 1 nM | IC50 [2]: 35 nM

Cc1c(C(=O)N2CCN(S(=O)(=O)c3ccc(F)cc3)CC2)cnn1-c1nn2cccc2c(=O)[nH]1 [Q-1807]
IC50 [1]: 1 nM | IC50 [2]: 110 nM

Cc1c(C(=O)N2CCC3(CC2)CC3C(=O)N2CCC2)cnn1-c1nc2c(c(=O)[nH]1)CCC2 (centres unmarked) [Q-1089]
IC50 [1]: 3 nM | IC50 [2]: 350 nM

Cc1c(C(=O)N2CC(c3ccnc(C(F)F)c3)C2)cnn1-c1nn2cccc2c(=O)[nH]1 [Q-2008]
IC50 [1]: 2 nM | IC50 [2]: 300 nM

Cc1c(C(=O)N2CCN(c3nc(C(F)(F)F)co3)CC2)cnn1-c1nn2cccc2c(=O)[nH]1 [Q-1137]
IC50 [1]: 3 nM | IC50 [2]: 160 nM

Cc1c(C(=O)N2CCC(c3nc(-c4ccccn4)cs3)CC2)cnn1-c1nn2cccc2c(=O)[nH]1 [Q-1099]
IC50 [1]: 1 nM | IC50 [2]: 60 nM

Cc1c(C(=O)N2CCC(c3nc(-c4cccnc4)cs3)CC2)cnn1-c1nn2cccc2c(=O)[nH]1 [Q-1097]
IC50 [1]: 1 nM | IC50 [2]: 24 nM

CCC1(C(F)(F)F)CCN(C(=O)c2cnn(-c3nn4cccc4c(=O)[nH]3)c2C)CC1 [Q-1132]
IC50 [1]: 1 nM | IC50 [2]: 40 nM

Cc1cc(C)c(S(=O)(=O)N2CCN(C(=O)c3cnn(-c4nn5cccc5c(=O)[nH]4)c3C)CC2)c(C)c1 [Q-1820]
IC50 [1]: 1 nM | IC50 [2]: 94 nM

Cc1c(C(=O)N2CCN(S(=O)(=O)c3ccc(F)cc3F)CC2)cnn1-c1nn2cccc2c(=O)[nH]1 [Q-1866]
IC50 [1]: 2 nM | IC50 [2]: 80 nM
